# Data reported in patent US20250129055A1, “GLUCOSIDE DERIVATIVE, AND PREPARATION METHOD THEREFOR AND APPLICATION THEREOF” (BEIJING INCREASE INNOVATIVE DRUG CO., LTD., priority 2020, published 2025).
# Where two headings read alike, the source gives them in different places.
# Assays:
# [1] = target: SGLT2 (Homo sapiens (Human), UniProt P31639); experiment: In vitro SGLT2 inhibitory activity: 1-NBDG uptake by CHO-SGLT2 cells; type: cell-based
# Procedure: The effect of the compounds on SGLT2-mediated glucose uptake was investigated by establishing an SGLT2 overexpression cell model and using the fluorescent glucose (2-deoxy-1-[(7-nitro-2,1,3-benzoxadiazol-4-yl)amino]-D-glucose, 1-NBDG) tracer method to screen out candidate compounds with SGLT2 inhibitory activity.
# The humanized SGLT2 overexpression cells (CHO-SGLT2) constructed from Chinese hamster ovary (CHO) cells were cultured in 1640 medium (Gibco) containing 10% fetal bovine serum (Gibco, 10270), subcultured at a ratio of 1:3, and replaced with new culture medium 3 times every week. Fluorescence detection cell culture plates and other culture flasks were purchased from Corning Company. […] Appropriate amounts of all compounds were weighed, prepared into 100 mM stock solutions with DMSO, and stored at 4° C. in the dark.
# Before the 1-NBDG uptake test, CHO-SGLT2 cells were digested and seeded in a 96-well cell culture plate with a cell number of 40,000/well. After the cells were cultured for 48 h, the medium was discarded, and 100 μl of choline buffer was added to each well. After the cells were starved at 37° C. for 30 min, the choline buffer was discarded and 100 μl of the newly prepared Na^+ sodium buffer containing […] 1-NBDG and the test compounds (Compound) was added. The solvent DMSO was used as the negative control (Control) for the test compounds.
# The Na^+ sodium buffer without 1-NBDG was used as the blank control (Blank). After 1 h of culture, the incubation solution was discarded. The cells were washed with choline buffer solution 3 times, and then 50 μl of neutral lysate was added to each well to lyse the cells on ice for 10 min. The fluorescence value of each well was detected using a multi-functional microplate reader at […].
# At least 3 experimental replicates were set for each compound at indicated concentrations, and the data were expressed as mean±SEM. Uptake amount of 1-NBDG by cells=fluorescence value1-NBDG-fluorescence valueBlank. Inhibition rate on uptake amount of SGLT2 glucose (%)=(uptake amountcontrol−uptake amountcompound)/uptake amountcontrol×100%. Concentration-inhibition rate curves were plotted using Graphpad Prism software, and IC50 values were calculated accordingly.
# [2] = system: mice; settings: mouse, in vivo, 3000 mg/kg; for Deaths D 1: 1 day; for Deaths D 2: 2 day; for Deaths D 3: 3 day; for Deaths D 4: 4 day; for Deaths D 5: 5 day; for Deaths D 6: 6 day; for Deaths D 7: 7 day; for Death rate (%): 7 days
# Procedure: Test Example 5 Research on Safety of the Compounds of the Present Invention
# The compounds of the present invention were subjected to the following acute toxicity studies in mice.
# The symptoms of toxicity reaction and death time were recorded.
# On the day before administration, the animals were fasted but provided with water for 17 h. Each test drug group was administered with the corresponding test drug once by gavage, and the blank control group was administered with the same dose of vehicle once by gavage.
# [3] = system: Alloxan diabetic mice; experiment: Efficacy in Alloxan diabetes model mice; type: in vivo; settings: for HbA1c: 32nd day
# Procedure: Test Example 3 Research on efficacy of the compounds of the present invention in in vivo anti-Alloxan diabetes model mice
# Alloxan diabetes mice were used. Normal ICR mice (male, 22-24 g) were randomly divided into groups including normal group, model group (con), positive control group and test compound groups with four different doses (n=11), and the mice without injection of Alloxan were in a normal control group (n=10).
# Mice were administered with drugs by gavage.
# Single administration: Mice were fasted for 3 h, and then the fasting blood (0 min) was collected. Then the mice in each group were administered with drugs by gavage. After 1 h, they were administered with a glucose ([…]) solution. Blood was collected at 30 min, 60 min, 120 min, and 180 min after the glucose administration. The blood glucose level was measured using glucose oxidase-peroxidase method, and the area under the blood glucose curve was calculated.
# On the 6th day of continuous administration, under the condition of no fasting, blood samples were collected from mice before administration (0 h), 1 h, 2 h, 4 h, 8 h and 24 h after administration to measure blood glucose.
# On the 9th day of continuous administration, the mice were fasted for 1 h and then administered with drugs by gavage. An oral glucose tolerance test (OGTT) was performed 1 h after administration.
# On the 16th day of continuous administration, under the condition of no fasting, urine samples were collected from mice 1 h after administration to measure the concentration of urine glucose.
# On the 22nd day of continuous administration, the mice were fasted for 1 h and then administered with drugs by gavage, and blood samples were collected to measure the fasting blood glucose 1 h after administration.
# On the 28th day of continuous administration, under the condition of no fasting, blood samples were collected from mice 1 h after administration to measure the random blood glucose.
# On the 32nd day of continuous administration, under the condition of no fasting, blood samples were collected from mice to measure glycosylated hemoglobin (HbA1c).
# The data were expressed as mean±SEM (n=10-11). The comparison between multiple groups was performed by one-way analysis of variance, and the comparison between two groups was performed by Dunnett's t test. Statistical graphing was performed using Graphpad Prism software.
# [4] = 0.25 mg/kg, OGTT on the 9th day
# Sequence of SGLT2 (P31639 whole entry): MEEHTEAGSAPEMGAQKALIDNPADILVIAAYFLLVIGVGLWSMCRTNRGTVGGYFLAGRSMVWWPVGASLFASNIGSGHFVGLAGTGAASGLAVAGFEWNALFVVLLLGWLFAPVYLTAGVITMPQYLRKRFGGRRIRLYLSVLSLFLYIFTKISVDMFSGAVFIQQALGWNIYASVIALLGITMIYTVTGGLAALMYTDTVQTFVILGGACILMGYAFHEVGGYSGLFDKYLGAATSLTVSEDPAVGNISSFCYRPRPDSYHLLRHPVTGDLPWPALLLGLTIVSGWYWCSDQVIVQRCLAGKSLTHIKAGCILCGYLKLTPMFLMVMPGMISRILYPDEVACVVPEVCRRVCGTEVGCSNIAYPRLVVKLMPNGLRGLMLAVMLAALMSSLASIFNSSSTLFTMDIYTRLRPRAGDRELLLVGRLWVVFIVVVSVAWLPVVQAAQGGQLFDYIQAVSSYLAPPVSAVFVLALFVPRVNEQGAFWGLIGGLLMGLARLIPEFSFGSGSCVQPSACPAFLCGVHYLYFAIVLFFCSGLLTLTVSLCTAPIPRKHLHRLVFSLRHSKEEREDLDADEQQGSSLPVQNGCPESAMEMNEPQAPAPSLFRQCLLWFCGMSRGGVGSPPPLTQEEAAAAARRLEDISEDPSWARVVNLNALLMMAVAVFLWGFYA
smiles,measurement,setting,value
"CS[C@H]1O[C@@H](c2ccc(C)c(Cc3ccc4c(c3)OCCO4)c2)[C@H](O)[C@@H](O)[C@@H]1O (stereo in doubt) [Compound 2, 2-[3-(2,3-dihydro-1,4-benzodioxin-6-ylmethyl)-4-methylphenyl]-6-(methylthio)oxane-3,4,5-triol]",IC50,"[1]; CHO-SGLT2 cells, 1-NBDG uptake, read-out: IC50 inhibiting SGLT2",0.105 nM
same,inhibition at 1 µM,"[1]; compound concentration 1 × 10^−6 mol/L, read-out: Inhibition rate of compounds on SGLT2 (%)",107 ± 1.1%
same,inhibition at 0.0001 µM,"[1]; compound concentration 1 × 10^−10 mol/L, read-out: Inhibition rate of compounds on SGLT2 (%)",40.6 ± 1%
same,inhibition at 10 pM,"[1]; compound concentration 1 × 10^−11 mol/L, read-out: Inhibition rate of compounds on SGLT2 (%)",0%
same,inhibition at 1 pM,"[1]; compound concentration 1 × 10^−12 mol/L, read-out: Inhibition rate of compounds on SGLT2 (%)",0.3 ± 6.4%
same,inhibition at 0.5 µM,"[1]; compound concentration 5 × 10^−7 mol/L, read-out: Inhibition rate of compounds on SGLT2 (%)",81.6 ± 2.5%
same,inhibition at 0.005 µM,"[1]; compound concentration 5 × 10^−9 mol/L, read-out: Inhibition rate of compounds on SGLT2 (%)",80.7 ± 3%
same,inhibition at 0.0005 µM,"[1]; compound concentration 5 × 10^−10 mol/L, read-out: Inhibition rate of compounds on SGLT2 (%)",61.9 ± 3.6%
same,inhibition at 50 pM,"[1]; compound concentration 5 × 10^−11 mol/L, read-out: Inhibition rate of compounds on SGLT2 (%)",39.2 ± 2.1%
same,Deaths D 1,[2]; female,0
same,Deaths D 2,[2]; female,0
same,Deaths D 3,[2]; female,0
same,Deaths D 4,[2]; female,0
same,Deaths D 5,[2]; female,0
same,Deaths D 6,[2]; female,0
same,Deaths D 7,[2]; female,0
same,Death rate (%),[2]; female,0%
same,Deaths D 1,[2]; male,0
same,Deaths D 2,[2]; male,0
same,Deaths D 3,[2]; male,0
same,Deaths D 4,[2]; male,1
same,Deaths D 5,[2]; male,0
same,Deaths D 6,[2]; male,1
same,Deaths D 7,[2]; male,0
same,Death rate (%),[2]; male,40%
same,"Concentration of fasting blood glucose, the 9th day",[3]; 0.25 mg/kg,307.7 ± 23.1 mg/dL
same,"Concentration of fasting blood glucose, the 22nd day",[3]; 0.25 mg/kg,305.6 ± 16.5 mg/dL
same,HbA1c,[3]; 0.25 mg/kg,7.2 ± 0.4%
same,AUC of blood glucose,[3]; [4],541.5 ± 22.8 mg·h/dL
same,Concentration of blood glucose 0 min,[3]; [4],307.7 ± 23.1 mg/dL
same,Concentration of blood glucose 30 min,"[3]; 0.25 mg/kg, OGTT on the 9th day, 30 min",303.0 ± 8.6 mg/dL
same,Concentration of blood glucose 60 min,"[3]; 0.25 mg/kg, OGTT on the 9th day, 60 min",268.5 ± 13.5 mg/dL
same,Concentration of blood glucose 120 min,"[3]; 0.25 mg/kg, OGTT on the 9th day, 120 min",223.4 ± 11.6 mg/dL
same,AUC of blood glucose,"[3]; 0.25 mg/kg, non-fasting, 6th day, 0-24 h",12051 ± 437.8 mg·h/dL
same,Concentration of blood glucose 1 h,"[3]; 0.25 mg/kg, non-fasting, 6th day, 1 h after administration",458.4 ± 25.2 mg/dL
same,Concentration of blood glucose 2 h,"[3]; 0.25 mg/kg, non-fasting, 6th day, 2 h after administration",430.7 ± 31.3 mg/dL
same,Concentration of blood glucose 4 h,"[3]; 0.25 mg/kg, non-fasting, 6th day, 4 h after administration",404.3 ± 33.8 mg/dL
same,Concentration of blood glucose 8 h,"[3]; 0.25 mg/kg, non-fasting, 6th day, 8 h after administration",478.2 ± 23.3 mg/dL
same,Concentration of blood glucose 24 h,"[3]; 0.25 mg/kg, non-fasting, 6th day, 24 h after administration",585.3 ± 17.9 mg/dL
same,Concentration of blood glucose 0 h,"[3]; 0.25 mg/kg, non-fasting, 6th day, before administration",540.1 ± 20.1 mg/dL
same,Concentration of blood glucose (random),"[3]; 0.25 mg/kg, random blood glucose on the 28th day",491.1 ± 26.5 mg/dL
same,"Concentration of fasting blood glucose, the 9th day",[3]; 0.5 mg/kg,249.7 ± 14.7 mg/dL
same,"Concentration of fasting blood glucose, the 22nd day",[3]; 0.5 mg/kg,236.0 ± 13.7 mg/dL
same,HbA1c,[3]; 0.5 mg/kg,6.1 ± 0.4 %
same,AUC of blood glucose,"[3]; 0.5 mg/kg, OGTT on the 9th day",468.3 ± 18.1 mg·h/dL
same,Concentration of blood glucose 0 min,"[3]; 0.5 mg/kg, OGTT on the 9th day",249.7 ± 14.7 mg/dL
